# Laboratory results published in ChEMBL document CHEMBL5291721, “A preclinical secondary pharmacology resource illuminates target-adverse drug reaction associations of marketed drugs” (Nat Commun, 2023).
# What was measured:
# [1] = biological target: T1, Androgen receptor (Rattus norvegicus, UniProt P15207); assay type: functional
# T1 sequence (P15207 whole entry): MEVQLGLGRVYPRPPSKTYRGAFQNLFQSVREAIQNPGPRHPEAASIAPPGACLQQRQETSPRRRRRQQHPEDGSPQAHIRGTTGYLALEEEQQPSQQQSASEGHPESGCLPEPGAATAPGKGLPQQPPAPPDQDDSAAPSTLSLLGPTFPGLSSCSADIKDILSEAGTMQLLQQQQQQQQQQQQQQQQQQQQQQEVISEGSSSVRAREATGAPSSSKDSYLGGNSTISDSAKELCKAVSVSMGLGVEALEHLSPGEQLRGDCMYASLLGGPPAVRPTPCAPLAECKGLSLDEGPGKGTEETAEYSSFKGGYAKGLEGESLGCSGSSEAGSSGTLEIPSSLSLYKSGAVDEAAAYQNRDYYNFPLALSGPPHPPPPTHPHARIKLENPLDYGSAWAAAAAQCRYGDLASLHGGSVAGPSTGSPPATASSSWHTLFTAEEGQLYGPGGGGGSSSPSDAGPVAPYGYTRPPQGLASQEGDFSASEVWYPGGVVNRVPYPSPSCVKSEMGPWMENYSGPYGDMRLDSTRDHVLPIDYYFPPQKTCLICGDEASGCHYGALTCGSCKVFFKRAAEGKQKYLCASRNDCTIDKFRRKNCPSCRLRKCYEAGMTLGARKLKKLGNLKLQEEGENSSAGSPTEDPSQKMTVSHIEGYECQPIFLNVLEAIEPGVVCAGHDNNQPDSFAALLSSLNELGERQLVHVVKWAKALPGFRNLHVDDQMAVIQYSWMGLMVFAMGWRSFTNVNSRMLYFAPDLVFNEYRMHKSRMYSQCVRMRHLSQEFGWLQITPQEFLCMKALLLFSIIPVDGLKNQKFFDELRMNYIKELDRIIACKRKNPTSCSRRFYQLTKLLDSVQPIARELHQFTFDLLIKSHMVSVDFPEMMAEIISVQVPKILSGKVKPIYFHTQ
# [2] = biological target: T2, Histamine H1 receptor (Homo sapiens, UniProt P35367); assay type: functional, cell-based
# T2 sequence (P35367 whole entry): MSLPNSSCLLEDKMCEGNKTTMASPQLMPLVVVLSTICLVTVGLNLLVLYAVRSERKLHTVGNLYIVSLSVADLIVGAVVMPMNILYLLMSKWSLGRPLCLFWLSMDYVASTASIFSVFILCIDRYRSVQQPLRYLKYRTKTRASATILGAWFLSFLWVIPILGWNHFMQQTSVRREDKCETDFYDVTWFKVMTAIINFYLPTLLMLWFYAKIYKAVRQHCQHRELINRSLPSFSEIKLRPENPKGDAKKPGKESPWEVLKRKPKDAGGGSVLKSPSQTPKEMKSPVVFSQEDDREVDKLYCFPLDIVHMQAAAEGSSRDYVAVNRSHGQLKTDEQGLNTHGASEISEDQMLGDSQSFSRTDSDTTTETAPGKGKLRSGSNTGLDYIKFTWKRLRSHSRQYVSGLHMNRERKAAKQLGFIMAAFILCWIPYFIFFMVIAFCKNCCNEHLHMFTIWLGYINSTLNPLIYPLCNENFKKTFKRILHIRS
# [3] = biological target: T2, Histamine H1 receptor; assay type: functional, cell-based; remark: listed apart in the source
# [4] = biological target: T3, Muscarinic acetylcholine receptor M4 (Homo sapiens, UniProt P08173)
# T3 sequence (P08173 whole entry): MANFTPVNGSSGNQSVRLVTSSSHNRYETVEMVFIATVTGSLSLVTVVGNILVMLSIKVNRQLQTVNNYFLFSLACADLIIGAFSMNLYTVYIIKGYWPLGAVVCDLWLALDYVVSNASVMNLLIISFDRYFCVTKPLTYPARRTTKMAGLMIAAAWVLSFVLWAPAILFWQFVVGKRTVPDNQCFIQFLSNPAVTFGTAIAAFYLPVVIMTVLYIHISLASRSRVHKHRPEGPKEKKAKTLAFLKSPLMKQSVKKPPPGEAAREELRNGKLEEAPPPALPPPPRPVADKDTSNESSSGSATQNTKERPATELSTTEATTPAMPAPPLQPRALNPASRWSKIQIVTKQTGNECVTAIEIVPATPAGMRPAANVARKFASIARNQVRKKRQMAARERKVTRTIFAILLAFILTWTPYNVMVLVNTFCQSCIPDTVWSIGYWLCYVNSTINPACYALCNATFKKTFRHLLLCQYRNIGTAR
# [5] = biological target: T4, Muscarinic acetylcholine receptor M5 (Homo sapiens, UniProt P08912)
# T4 sequence (P08912 whole entry): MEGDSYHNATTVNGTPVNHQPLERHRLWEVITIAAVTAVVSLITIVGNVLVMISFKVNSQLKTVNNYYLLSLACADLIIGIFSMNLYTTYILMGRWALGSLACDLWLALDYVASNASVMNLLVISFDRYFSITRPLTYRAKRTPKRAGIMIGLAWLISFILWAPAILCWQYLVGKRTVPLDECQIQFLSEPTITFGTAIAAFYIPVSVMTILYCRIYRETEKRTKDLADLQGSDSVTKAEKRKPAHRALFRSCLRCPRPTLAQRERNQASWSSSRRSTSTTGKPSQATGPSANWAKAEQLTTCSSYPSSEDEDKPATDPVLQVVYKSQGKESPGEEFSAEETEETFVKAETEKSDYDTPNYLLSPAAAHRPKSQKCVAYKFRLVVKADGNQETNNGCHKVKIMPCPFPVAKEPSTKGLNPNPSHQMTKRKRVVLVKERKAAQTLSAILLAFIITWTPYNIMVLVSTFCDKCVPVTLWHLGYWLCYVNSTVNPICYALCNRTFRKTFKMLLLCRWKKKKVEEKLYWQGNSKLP
# [6] = biological target: T5, D(4) dopamine receptor (Homo sapiens, UniProt P21917)
# T5 sequence (P21917 whole entry): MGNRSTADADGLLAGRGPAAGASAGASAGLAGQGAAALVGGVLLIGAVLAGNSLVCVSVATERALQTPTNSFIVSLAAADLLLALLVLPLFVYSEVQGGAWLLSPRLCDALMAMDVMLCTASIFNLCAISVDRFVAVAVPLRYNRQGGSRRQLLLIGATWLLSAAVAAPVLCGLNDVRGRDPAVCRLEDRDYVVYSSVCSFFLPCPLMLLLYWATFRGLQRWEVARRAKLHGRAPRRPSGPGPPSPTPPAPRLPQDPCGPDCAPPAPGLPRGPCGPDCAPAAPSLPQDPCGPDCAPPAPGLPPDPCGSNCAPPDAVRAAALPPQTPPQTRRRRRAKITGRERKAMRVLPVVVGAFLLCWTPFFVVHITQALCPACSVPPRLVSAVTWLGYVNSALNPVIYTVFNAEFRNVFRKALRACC
# [7] = biological target: D(1B) dopamine receptor (Homo sapiens, UniProt P21918)
# D(1B) dopamine receptor, sequence (P21918 whole entry): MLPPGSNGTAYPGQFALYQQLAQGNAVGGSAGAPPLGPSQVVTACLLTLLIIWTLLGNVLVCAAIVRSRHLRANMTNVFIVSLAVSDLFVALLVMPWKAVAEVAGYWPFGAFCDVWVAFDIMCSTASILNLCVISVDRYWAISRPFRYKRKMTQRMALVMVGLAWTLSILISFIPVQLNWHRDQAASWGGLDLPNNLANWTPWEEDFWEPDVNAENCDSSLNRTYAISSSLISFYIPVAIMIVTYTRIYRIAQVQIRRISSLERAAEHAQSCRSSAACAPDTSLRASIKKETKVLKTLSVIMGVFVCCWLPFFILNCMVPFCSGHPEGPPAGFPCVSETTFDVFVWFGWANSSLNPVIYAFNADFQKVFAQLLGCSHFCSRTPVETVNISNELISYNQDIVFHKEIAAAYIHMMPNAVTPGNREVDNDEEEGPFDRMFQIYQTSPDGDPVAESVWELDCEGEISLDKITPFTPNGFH
# [8] = biological target: 5-hydroxytryptamine receptor 5A (Homo sapiens, UniProt P47898)
# 5-hydroxytryptamine receptor 5A, sequence (P47898 whole entry): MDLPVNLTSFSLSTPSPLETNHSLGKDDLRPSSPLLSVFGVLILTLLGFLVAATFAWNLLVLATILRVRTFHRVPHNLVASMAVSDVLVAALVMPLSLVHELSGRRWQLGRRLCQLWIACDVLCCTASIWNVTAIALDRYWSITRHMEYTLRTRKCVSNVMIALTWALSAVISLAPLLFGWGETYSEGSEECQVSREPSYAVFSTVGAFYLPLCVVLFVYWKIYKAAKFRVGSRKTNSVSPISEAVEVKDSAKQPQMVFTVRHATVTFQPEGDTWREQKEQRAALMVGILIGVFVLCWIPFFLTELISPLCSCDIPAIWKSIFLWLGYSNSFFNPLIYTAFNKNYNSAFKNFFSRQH
# [9] = biological target: T6, Substance-K receptor (Homo sapiens, UniProt P21452)
# T6 sequence (P21452 whole entry): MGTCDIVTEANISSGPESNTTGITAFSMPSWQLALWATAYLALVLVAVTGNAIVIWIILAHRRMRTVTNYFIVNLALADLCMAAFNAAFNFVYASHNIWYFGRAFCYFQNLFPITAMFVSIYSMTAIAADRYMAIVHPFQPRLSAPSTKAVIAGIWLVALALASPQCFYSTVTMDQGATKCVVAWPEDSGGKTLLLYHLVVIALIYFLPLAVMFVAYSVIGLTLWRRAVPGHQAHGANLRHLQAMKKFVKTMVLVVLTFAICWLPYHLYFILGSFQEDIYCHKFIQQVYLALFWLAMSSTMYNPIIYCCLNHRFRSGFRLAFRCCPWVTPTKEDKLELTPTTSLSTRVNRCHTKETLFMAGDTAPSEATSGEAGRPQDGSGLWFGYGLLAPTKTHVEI
# Note: assay procedure not described here.
smiles,measurement,setting,value
CCCC(=O)N1CCCN(c2nc(N)c3cc(OC)c(OC)cc3n2)CC1 [BUNAZOSIN],AC50,[1],> 30 µM
same,AC50,[2],> 30 µM
same,AC50,[3],> 30 µM
O=C(Nc1ccccc1)OCC(CN1CCCCC1)OC(=O)Nc1ccccc1 (stereo not given) [DIPERODON],AC50,[4],> 10 µM
same,AC50,[5],> 10 µM
same,AC50,[6],5.2 µM
same,AC50,[7],> 10 µM
same,AC50,[8],> 10 µM
same,AC50,[9],> 10 µM
C=C1C[C@@H]2[C@H](CC[C@]3(C)C(=O)CC[C@@H]23)[C@@]2(C)C=CC(=O)C=C12 [EXEMESTANE],AC50,[2],> 30 µM
same,AC50,[3],> 30 µM
CS(=O)(=O)Nc1cc2occ(NC=O)c(=O)c2cc1Oc1ccccc1 [IGURATIMOD],AC50,[1],> 30 µM
CN(C)CCCN1c2ccccc2Sc2ccccc21 [PROMAZINE],AC50,[4],1.44 µM
same,AC50,[5],0.589 µM
same,AC50,[6],0.551 µM
same,AC50,[7],5.78 µM
same,AC50,[8],0.823 µM
same,AC50,[9],> 10 µM
O=P(O)(O)C(O)(Cc1cccnc1)P(=O)(O)O [RISEDRONIC ACID],AC50,[6],> 10 µM
O=C1CCC(N2C(=O)c3ccccc3C2=O)C(=O)N1 (stereo not given) [THALIDOMIDE],AC50,[6],> 10 µM
